EP4656642A1, “ESTROGEN RECEPTOR PROTEOLYSIS TARGETING CHIMERA COMPOUND AND USE THEREOF” (GAN & LEE PHARM CO., LTD, priority 2023, dated 2024)

Legend:
Format in all cases: cell-based
T-47D cells = assay: Inhibition of cell proliferation in T-47D cells (CCK-8, 6 days); settings: 6 days of treatment, Table 2
Summary of the method: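 T-47D cells at 3,000 cells/well in RPMI 1640 with 10% FBS were exposed to a concentration series of PROTAC compounds for 6 days at 37 °C, 5% CO2. Viability was read by CCK-8, and IC50 values were derived for proliferation inhibition.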

ERα [1] = biological target: T1, ERα (Homo sapiens, UniProt P03372); assay: Degradation of ERα in T-47D cells (immunoblotting, 4 h); parameters: host or cells: T-47D
T1 sequence (P03372 1-595): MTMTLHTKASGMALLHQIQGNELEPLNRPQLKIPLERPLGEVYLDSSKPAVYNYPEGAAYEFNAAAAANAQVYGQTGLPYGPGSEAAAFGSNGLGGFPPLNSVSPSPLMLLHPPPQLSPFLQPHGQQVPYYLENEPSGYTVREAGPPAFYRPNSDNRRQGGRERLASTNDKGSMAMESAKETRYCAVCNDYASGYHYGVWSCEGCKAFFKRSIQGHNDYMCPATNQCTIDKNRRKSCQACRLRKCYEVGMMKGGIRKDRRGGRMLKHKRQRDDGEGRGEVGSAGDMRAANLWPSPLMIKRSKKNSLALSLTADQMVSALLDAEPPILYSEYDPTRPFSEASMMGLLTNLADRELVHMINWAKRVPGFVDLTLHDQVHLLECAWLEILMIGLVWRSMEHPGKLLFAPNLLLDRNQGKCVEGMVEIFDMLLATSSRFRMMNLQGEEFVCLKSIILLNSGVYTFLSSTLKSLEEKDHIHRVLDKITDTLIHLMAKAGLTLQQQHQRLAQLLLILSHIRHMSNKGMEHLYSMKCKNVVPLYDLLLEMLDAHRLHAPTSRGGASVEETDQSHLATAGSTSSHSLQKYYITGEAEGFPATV
Summary of the method: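 T-47D cells were treated with compound (final 0.15-1000 nM, DMSO) for 4 h at 37°C, 5% CO2. Cells were lysed in RIPA buffer with protease inhibitor, and ERα protein in the cleared lysate was measured by immunoblotting.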

MCF-7 cells [2] = assay: Inhibition of cell proliferation of MCF-7 cells (CCK-8, 6 days); settings: 6 days of treatment, Table 4
Description: Test Example 3 Inhibitory effect of the PROTAC compounds provided in the present disclosure on cell proliferation of MCF-7 cells
The complete medium required for MCF-7 cells (source ATCC) was DMEM (gibco, Product number :11995-065) basal medium containing 10% fetal bovine serum. MCF-7 cells were inoculated in 96-well plates at a density of 800 cells/well, and different concentrations of the PROTAC compounds 1-55 provided in the examples of the present disclosure and a positive control sample ARV-471 (source: Innochem) were prepared to treat the cells, and the cells were treated at 37°C in a cell culture incubator with 5% CO2 for 6 days. Cell viability was detected using a CCK-8 kit (Beyotime, Product number: C0040) according to the manufacturer's instructions. The IC50 values of each PROTAC compound after 6 days of treatment were calculated using GraphPadPrism software based on the inhibition rate, and the results are shown in Table 4. Table 4 IC50 values for inhibition of the proliferation of MCF-7 cells by the PROTAC compounds of the present disclosure and positive control sample

ERα [3] = biological target: T1, ERα; assay: Degradation of ERα in MCF-7 cells (immunoblotting, 4 h)
Summary of the method: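 MCF-7 cells treated 4 h at 37°C with compounds at 0.15-1000nM final. ERα in lysates measured by immunoblot, with band grayscale normalized to an internal reference protein. Degradation rate calculated against DMSO-treated control.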

MCF-7 cells [4] = assay: Inhibition of cell proliferation of MCF-7 cells (CCK-8, 9 days); settings: Homo sapiens, MCF7, 216 h, 9 days of treatment, CCK-8, Table 5
Summary of the method: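 MCF-7 cells seeded at 800 cells/well in DMEM with 10% FBS, exposed to a range of compound concentrations for 9 days at 37°C, 5% CO2. Viability read by CCK-8; IC50 derived for proliferation inhibition.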

| SMILES | IC50 (T-47D cells) [nM] | Degradation rate (%) of ERα in T-47D cells (ERα [1]; 10nM compound) [%] | IC50 (MCF-7 cells [2]) [nM] | Degradation rate (%) of ERα in MCF-7 cells (ERα [3]; 10nM compound) [%] | IC50 (T-47D cells; Homo sapiens, T47D, 144 h) [nM] | Degradation rate (%) of ERα in T-47D cells (ERα [1]; 1nM compound) [%] | IC50 (MCF-7 cells [4]) [nM] | IC50 (MCF-7 cells [2]; Homo sapiens, MCF7, 144 h) [nM] | Degradation rate (%) of ERα in MCF-7 cells (ERα [3]; 1nM compound) [%] |
| --- | --- | --- | --- | --- | --- | --- | --- | --- | --- |
| O=C1CCC(N2C(=O)c3cc4c(cc3C2=O)OC2(CCN(C3CCC5(CC3)CCN(c3ccc(C6c7ccc(O)cc7CCC6c6ccccc6)cc3)CC5)CC2)C4)C(=O)N1 (centres unmarked) [A25] | 20 | -1 | 23400 | 8 |  |  |  |  |  |
| O=C1CCC(N2Cc3cc4c(cc3C2=O)OCC2(CCN(C3CCC5(CC3)CCN(c3ccc(C6c7ccc(O)cc7CCC6c6ccccc6)cc3)CC5)CC2)O4)C(=O)N1 (centres unmarked) [A26] | 21 | 40 | 3780 | 13 |  |  |  |  |  |
| O=C1CCC(N2Cc3cc4c(cc3C2=O)OCC2(CCN(C3CCC5(CC3)CN(c3ccc(C6c7ccc(O)cc7CCC6c6ccccc6)cc3)C5)CC2)O4)C(=O)N1 (centres unmarked) [A27] | 15 | -15 | 4360 | 4 |  |  |  |  |  |
| O=C1CCC(N2Cc3cc4c(cc3C2=O)CCC2(CCN(C3C[C@@H]5CN(c6ccc(C7c8ccc(O)cc8CCC7c7ccccc7)cc6)C[C@@H]5C3)CC2)O4)C(=O)N1 (some centres unmarked) [A29] | 215 | -2 | 5480 | 8 |  |  |  |  |  |
| O=C1CCC(N2Cc3cc4c(cc3C2=O)OC2(CC4)CN(C3CCC4(CC3)CCN(c3ccc(C5c6ccc(O)cc6CCC5c5ccccc5)cc3)CC4)C2)C(=O)N1 (centres unmarked) [A30] | 11.8 | 46 | 30200 | 23 |  |  |  |  |  |
| O=C1CC[C@H](N2Cc3cc(N4CCN(CC5CCN(c6ccc([C@@H]7c8ccc(O)cc8CC[C@@H]7c7ccccc7)cc6)CC5)CC4)ccc3C2=O)C(=O)N1 [ARV-471, reference compound] |  | 85 |  | 76 | 1.7 | 61 | 70 | 17900 | 38 |
| O=C1CCC(N2Cc3cc4c(cc3C2=O)OC2(CC4)CCN(CC3CCN(c4ccc(C5c6ccc(O)cc6CCC5c5ccccc5)cc4)C3)CC2)C(=O)N1 (centres unmarked) [B2] | 229 | -92 | 10200 | -26 |  |  |  |  |  |
| O=C1CCC(N2Cc3cc4c(cc3C2=O)CCC2(CCN(CC3CCN(c5ccc(C6c7ccc(O)cc7CCC6c6ccccc6)cc5)C3)CC2)O4)C(=O)N1 (centres unmarked) [B4] | 56.9 | -9 | 10000 | -34 |  |  |  |  |  |
| O=C1CCC(N2Cc3cc4c(cc3C2=O)CCC2(CCN(C3CC5(CCN(c6ccc(C7c8ccc(O)cc8CCC7c7ccccc7)cc6)CC5)C3)CC2)O4)C(=O)N1 (centres unmarked) [M6] | 11 | 54 | 4380 |  |  | 22 |  |  |  |
| O=C1CCC(N2Cc3cc4c(cc3C2=O)OCC2(CCN(C3CC5(CCN(c6ccc(C7c8ccc(O)cc8CCC7c7ccccc7)cc6)CC5)C3)CC2)O4)C(=O)N1 (centres unmarked) [M7] | 17 | 56 | 13600 |  |  | 17 |  |  |  |
| O=C1CCC(N2C(=O)c3cc4c(cc3C2=O)OCC2(CCN(CC3CN(c5ccc(C6c7ccc(O)cc7CCC6c6ccccc6)cc5)C3)CC2)C4)C(=O)N1 (centres unmarked) [O1] | 130 |  | 53600 |  |  |  |  |  |  |
| O=C1CCC(N2C(=O)c3cc4c(cc3C2=O)OC2(CC4)CCN(C3CC4(C3)CN(c3ccc(C5c6ccc(O)cc6CCC5c5ccccc5)cc3)C4)CC2)C(=O)N1 (centres unmarked) [O3] | 202 |  | 86800 |  |  |  |  |  |  |
